The values that follow come from ChEMBL document CHEMBL5252522 (Eur J Med Chem, 2016).

The structures appear in SMILES notation.

One assay deals with Histone deacetylase. The class given is protein assay, Homo sapiens.
In a further assay the target is T1, Histone deacetylase 11 (Homo sapiens, UniProt Q96DB2).
T1 sequence (Q96DB2 whole entry): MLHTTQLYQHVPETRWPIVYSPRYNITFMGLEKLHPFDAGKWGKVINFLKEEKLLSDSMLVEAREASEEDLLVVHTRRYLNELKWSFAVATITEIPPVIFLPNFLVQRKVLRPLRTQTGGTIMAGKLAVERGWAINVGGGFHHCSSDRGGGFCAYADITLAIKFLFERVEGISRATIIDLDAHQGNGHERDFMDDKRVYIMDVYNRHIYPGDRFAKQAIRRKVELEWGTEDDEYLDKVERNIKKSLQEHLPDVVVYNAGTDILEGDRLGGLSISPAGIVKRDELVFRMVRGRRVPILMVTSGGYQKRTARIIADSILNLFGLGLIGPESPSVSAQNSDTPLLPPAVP
The assay is described as follows: Inhibition of HDAC11 (unknown origin).

Another assay has as its target Histone deacetylase 9 (Homo sapiens, UniProt Q9UKV0). The assay is described as follows: Inhibition of HDAC9 (unknown origin).
In another assay the target is Histone deacetylase 3 (Homo sapiens, UniProt O15379). The assay is described as follows: Inhibition of HDAC3 (unknown origin).
Sequence of Histone deacetylase 3 (O15379 whole entry): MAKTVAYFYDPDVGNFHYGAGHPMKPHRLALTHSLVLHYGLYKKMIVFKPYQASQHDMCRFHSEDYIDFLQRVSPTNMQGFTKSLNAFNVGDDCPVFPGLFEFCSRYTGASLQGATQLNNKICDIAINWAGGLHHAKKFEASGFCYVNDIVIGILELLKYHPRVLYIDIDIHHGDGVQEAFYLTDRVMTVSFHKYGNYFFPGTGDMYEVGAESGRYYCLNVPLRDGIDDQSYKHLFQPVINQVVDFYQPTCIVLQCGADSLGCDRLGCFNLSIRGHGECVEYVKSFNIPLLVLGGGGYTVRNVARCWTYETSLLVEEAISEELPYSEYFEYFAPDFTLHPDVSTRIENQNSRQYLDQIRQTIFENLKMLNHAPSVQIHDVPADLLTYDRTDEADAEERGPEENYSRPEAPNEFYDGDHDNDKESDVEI
The target of another assay is Histone deacetylase 5 (Homo sapiens, UniProt Q9UQL6). Description: Inhibition of HDAC5 (unknown origin).
Sequence of Histone deacetylase 5 (Q9UQL6 whole entry): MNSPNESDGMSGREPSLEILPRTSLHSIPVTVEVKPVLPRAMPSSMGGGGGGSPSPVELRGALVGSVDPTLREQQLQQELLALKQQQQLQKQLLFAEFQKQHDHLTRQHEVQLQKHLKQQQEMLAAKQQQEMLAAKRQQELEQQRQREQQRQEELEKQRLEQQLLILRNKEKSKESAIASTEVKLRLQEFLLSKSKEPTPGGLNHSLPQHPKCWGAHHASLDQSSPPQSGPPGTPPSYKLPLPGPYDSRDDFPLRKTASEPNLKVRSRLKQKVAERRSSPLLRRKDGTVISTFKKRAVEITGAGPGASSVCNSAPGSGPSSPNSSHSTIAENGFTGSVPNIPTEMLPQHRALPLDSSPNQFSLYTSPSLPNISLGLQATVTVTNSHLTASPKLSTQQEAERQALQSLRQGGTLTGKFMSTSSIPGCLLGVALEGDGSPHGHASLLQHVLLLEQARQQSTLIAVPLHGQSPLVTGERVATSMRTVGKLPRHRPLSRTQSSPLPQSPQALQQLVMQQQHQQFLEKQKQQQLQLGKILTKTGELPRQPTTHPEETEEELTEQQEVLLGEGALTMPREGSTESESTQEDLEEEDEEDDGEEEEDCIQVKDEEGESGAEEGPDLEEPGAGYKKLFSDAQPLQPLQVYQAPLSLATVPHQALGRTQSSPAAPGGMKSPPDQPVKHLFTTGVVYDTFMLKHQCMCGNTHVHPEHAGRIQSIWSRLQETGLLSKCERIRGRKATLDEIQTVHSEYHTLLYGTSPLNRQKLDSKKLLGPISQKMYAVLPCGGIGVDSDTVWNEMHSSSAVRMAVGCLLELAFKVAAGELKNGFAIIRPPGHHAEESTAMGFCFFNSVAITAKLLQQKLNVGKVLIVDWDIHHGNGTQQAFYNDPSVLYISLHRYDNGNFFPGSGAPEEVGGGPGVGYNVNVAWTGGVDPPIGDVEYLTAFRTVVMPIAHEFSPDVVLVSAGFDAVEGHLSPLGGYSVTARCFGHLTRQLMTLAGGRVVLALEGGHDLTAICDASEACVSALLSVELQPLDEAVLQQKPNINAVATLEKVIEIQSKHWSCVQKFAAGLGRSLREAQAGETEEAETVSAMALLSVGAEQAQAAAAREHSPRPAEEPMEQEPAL
In another assay the target is T2, Histone deacetylase 8 (Homo sapiens, UniProt Q9BY41).
T2 sequence (Q9BY41 whole entry): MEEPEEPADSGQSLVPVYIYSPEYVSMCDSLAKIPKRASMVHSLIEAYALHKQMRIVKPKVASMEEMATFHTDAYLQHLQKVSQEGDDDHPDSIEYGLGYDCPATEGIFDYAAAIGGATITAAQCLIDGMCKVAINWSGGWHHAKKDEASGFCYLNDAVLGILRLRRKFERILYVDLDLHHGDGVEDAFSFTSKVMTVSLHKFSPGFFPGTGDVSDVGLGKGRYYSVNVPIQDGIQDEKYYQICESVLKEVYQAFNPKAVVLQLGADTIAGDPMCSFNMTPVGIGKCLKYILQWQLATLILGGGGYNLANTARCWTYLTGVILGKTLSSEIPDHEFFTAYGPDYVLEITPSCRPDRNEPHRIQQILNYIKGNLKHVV
Description: Inhibition of HDAC8 (unknown origin).

A further assay deals with T3, Histone deacetylase 7 (Homo sapiens, UniProt Q8WUI4).
T3 sequence (Q8WUI4 whole entry): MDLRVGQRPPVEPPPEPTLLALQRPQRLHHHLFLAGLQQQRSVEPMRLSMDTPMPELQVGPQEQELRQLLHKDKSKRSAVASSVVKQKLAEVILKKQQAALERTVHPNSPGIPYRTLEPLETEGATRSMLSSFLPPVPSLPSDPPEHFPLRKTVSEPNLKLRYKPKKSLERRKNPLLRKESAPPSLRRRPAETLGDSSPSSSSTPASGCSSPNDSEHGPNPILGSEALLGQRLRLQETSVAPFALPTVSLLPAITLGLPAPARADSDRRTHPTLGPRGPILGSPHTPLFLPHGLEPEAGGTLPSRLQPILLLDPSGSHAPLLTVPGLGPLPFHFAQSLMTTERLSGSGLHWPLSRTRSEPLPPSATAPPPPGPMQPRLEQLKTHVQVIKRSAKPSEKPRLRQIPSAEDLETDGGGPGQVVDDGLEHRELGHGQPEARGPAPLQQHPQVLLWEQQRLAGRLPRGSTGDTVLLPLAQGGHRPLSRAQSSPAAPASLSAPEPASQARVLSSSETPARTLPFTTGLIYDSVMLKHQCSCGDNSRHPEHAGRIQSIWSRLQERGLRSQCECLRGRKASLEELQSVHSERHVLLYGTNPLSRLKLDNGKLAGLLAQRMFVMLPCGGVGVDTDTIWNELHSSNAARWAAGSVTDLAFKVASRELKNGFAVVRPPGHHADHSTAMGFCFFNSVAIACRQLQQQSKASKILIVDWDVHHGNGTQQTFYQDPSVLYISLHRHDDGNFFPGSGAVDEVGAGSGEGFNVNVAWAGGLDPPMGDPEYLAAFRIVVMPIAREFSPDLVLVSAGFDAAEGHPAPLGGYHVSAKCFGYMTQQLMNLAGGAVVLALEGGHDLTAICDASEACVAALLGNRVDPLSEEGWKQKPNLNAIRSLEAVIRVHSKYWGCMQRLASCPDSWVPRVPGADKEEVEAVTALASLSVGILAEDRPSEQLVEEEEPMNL
Description: Inhibition of HDAC7 (unknown origin).

In a further assay the target is Histone deacetylase 4 (Homo sapiens, UniProt P56524). The assay is described as follows: Inhibition of HDAC4 (unknown origin).
Sequence of Histone deacetylase 4 (P56524 whole entry): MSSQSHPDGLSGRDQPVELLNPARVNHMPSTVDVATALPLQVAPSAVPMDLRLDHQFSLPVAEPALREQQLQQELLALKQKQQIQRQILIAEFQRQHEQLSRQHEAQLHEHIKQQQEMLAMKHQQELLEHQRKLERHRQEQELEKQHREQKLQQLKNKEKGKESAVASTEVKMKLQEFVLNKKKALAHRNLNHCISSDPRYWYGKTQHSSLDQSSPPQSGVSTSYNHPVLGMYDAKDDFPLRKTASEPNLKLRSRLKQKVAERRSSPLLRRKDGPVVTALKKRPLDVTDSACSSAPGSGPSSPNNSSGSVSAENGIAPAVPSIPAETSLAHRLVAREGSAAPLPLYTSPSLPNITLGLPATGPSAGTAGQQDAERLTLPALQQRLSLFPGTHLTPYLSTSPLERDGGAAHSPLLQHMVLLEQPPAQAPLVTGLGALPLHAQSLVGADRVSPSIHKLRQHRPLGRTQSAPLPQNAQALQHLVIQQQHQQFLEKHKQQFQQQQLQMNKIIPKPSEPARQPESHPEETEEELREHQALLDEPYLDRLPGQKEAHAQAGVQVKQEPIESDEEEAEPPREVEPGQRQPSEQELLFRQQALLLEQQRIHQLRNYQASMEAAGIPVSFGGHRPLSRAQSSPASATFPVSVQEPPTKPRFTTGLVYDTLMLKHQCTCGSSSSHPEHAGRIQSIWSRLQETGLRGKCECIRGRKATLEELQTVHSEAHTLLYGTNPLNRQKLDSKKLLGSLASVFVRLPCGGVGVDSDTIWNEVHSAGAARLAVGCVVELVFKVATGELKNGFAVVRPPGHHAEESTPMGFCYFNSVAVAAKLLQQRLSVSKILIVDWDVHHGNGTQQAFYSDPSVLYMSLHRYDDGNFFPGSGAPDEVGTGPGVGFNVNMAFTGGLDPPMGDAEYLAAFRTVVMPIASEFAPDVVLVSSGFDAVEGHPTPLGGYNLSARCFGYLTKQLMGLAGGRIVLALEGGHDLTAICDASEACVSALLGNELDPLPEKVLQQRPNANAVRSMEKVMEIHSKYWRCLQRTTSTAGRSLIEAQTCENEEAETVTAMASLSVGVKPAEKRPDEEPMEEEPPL
The target of the next assay is Histone deacetylase 1 (Homo sapiens, UniProt Q13547). Description: Inhibition of HDAC1 (unknown origin).
Sequence of Histone deacetylase 1 (Q13547 whole entry): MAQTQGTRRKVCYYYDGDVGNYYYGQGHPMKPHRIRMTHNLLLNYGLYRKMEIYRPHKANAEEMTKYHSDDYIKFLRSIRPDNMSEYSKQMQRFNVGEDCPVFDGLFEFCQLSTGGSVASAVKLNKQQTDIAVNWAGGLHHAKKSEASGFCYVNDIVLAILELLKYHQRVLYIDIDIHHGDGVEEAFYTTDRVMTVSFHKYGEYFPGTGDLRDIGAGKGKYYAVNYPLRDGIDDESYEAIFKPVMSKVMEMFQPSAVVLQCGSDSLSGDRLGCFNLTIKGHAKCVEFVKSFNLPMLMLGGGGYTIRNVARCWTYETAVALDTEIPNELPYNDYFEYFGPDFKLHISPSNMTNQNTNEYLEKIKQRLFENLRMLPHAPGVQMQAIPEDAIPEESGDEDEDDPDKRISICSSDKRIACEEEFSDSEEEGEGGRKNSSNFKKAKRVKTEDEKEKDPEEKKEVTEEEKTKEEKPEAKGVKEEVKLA
The target of assay [1] is T4, Polyamine deacetylase HDAC10 (Homo sapiens, UniProt Q969S8).
T4 sequence (Q969S8 whole entry): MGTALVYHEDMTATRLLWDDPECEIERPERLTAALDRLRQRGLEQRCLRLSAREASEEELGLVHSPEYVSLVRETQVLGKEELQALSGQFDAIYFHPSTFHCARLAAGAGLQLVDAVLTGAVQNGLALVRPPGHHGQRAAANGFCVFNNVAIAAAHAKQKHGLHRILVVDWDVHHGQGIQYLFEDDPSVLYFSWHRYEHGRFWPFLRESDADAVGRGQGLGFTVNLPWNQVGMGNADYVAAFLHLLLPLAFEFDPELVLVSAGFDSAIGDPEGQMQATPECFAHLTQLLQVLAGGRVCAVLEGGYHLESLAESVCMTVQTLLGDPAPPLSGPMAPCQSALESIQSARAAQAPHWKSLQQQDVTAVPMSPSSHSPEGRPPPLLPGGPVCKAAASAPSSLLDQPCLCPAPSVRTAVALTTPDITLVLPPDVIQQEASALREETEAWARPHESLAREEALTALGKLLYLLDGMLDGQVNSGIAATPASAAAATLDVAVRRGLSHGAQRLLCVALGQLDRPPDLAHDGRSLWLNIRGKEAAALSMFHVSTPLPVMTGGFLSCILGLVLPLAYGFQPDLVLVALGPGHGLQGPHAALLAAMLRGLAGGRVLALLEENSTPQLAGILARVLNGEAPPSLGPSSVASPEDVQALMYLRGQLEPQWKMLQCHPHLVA
Description: Inhibition of HDAC10 (unknown origin).

A further assay has as its target Histone deacetylase 2 (Homo sapiens, UniProt Q92769).
The target in assay [2] is T5, Protein deacetylase HDAC6 (Homo sapiens, UniProt Q9UBN7).
T5 sequence (Q9UBN7 whole entry): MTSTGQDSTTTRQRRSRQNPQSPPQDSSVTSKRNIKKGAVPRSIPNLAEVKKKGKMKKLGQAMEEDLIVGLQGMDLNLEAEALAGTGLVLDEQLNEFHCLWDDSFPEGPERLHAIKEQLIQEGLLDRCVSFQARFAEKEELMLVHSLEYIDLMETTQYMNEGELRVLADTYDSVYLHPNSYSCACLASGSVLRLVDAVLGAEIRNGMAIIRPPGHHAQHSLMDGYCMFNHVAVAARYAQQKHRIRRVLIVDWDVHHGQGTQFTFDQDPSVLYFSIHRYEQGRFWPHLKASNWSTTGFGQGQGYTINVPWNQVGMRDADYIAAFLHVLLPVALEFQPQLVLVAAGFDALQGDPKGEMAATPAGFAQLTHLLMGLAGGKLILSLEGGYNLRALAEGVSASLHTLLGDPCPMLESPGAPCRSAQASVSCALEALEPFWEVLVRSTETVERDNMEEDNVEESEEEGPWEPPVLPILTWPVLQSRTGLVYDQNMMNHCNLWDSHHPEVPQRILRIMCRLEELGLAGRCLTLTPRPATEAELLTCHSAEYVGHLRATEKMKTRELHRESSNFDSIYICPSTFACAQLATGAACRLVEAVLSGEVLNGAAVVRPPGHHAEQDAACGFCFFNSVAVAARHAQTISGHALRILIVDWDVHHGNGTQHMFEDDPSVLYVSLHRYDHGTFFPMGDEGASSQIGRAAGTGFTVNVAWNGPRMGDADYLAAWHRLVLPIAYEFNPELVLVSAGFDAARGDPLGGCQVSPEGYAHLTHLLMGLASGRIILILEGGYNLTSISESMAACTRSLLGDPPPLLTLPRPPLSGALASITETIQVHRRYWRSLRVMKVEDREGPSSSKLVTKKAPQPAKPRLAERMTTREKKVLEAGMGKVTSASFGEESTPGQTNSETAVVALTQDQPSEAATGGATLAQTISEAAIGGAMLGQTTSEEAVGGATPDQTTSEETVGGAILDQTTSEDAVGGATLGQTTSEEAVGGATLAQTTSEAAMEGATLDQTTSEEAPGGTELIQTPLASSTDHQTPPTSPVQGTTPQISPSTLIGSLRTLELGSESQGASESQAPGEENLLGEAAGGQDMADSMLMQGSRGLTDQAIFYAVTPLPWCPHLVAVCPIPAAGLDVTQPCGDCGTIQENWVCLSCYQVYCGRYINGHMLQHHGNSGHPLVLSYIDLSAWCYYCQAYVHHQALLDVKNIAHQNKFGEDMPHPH
Description: Inhibition of HDAC6 (unknown origin).

Sequence of Histone deacetylase 2 (Q92769 whole entry): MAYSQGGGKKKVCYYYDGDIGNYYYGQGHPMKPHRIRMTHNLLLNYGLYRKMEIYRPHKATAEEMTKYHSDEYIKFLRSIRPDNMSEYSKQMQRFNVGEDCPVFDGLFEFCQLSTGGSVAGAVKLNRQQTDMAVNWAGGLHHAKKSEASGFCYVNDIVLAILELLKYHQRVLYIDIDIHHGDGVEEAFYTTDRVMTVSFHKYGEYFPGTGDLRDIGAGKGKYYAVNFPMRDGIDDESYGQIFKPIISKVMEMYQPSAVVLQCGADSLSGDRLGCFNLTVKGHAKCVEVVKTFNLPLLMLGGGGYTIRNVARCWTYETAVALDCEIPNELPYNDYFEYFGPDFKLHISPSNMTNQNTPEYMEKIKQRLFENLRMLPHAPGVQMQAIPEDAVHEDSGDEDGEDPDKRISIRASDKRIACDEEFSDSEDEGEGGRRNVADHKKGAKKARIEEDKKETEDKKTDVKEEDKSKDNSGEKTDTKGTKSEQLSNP
Sequence of Histone deacetylase 9 (Q9UKV0 whole entry): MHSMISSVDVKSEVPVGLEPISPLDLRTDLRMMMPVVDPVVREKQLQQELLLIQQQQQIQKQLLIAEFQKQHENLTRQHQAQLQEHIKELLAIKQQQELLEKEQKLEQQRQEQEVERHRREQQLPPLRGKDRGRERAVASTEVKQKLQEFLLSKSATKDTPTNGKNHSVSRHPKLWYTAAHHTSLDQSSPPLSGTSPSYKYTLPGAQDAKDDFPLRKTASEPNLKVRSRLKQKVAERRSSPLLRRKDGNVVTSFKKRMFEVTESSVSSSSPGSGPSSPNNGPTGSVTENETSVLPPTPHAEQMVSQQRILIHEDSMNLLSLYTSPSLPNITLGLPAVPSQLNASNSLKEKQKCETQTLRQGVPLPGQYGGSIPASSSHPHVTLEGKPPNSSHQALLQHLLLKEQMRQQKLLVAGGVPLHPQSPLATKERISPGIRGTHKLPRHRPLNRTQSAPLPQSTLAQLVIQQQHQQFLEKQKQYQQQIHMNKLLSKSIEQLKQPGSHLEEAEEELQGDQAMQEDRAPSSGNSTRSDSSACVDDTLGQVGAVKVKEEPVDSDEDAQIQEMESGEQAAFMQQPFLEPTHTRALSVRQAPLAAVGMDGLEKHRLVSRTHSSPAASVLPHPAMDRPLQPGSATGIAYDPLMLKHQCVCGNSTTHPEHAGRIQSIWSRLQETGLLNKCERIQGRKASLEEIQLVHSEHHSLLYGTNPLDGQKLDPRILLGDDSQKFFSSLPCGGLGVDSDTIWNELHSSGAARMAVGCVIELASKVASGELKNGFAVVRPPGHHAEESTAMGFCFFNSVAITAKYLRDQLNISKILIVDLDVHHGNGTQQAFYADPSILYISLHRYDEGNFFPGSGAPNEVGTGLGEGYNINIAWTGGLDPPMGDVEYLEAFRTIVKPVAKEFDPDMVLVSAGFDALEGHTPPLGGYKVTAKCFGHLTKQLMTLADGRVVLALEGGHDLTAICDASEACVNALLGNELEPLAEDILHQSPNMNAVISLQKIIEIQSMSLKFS

Broadly, the IC50 is the concentration at which inhibition is half-maximal. Low values mean greater potency, high ones weaker potency. For the compound `CCc1nnc(NS(=O)(=O)c2ccc(N/C=C3\Sc4ccccc4C3=O)cc2)s1`, the IC50 on Histone deacetylase amounted to 4.2 µM.
On to `O=C(NO)c1ccc(CC(=O)N(CCO)c2ccccc2)cc1`, for which the IC50 against Histone deacetylase 11 was above 10 µM; on Histone deacetylase 9, above 10 µM; against Histone deacetylase 3 it was 1.7 µM; against Histone deacetylase 5 it was above 10 µM; against Histone deacetylase 8, 2.8 µM; against Histone deacetylase 7 it was above 10 µM. Besides, the IC50 is above 10 µM at Histone deacetylase 4, 2.9 µM at Histone deacetylase 1 and 3 µM in assay [1].
The compound `CC1(C)C(=O)N(c2ccc(C#N)c(C(F)(F)F)c2)C(=O)N1Cc1ccc(-c2cn(CCCCCCC(=O)NO)nn2)cc1` registered an IC50 at Histone deacetylase of 0.69 µM.
Take `O=C(CCCCCCNC(=O)c1c(-c2ccc(O)cc2)sc2cc(O)ccc12)NO`: the IC50 was 0.128 µM against Histone deacetylase 3, 0.4 µM at Histone deacetylase 8, 0.665 µM on Histone deacetylase 2 and 0.168 µM against Histone deacetylase 1.
For `O=C(CCCCCn1cc(-c2ccc(C(=O)c3c(-c4ccc(O)cc4)sc4cc(O)ccc34)cc2)nn1)NO`, in that order: 0.748 µM, 29.9 µM, 1.82 µM and 1.03 µM.
Take `O=C(CCc1ccc(Oc2cccs2)c(O)c1)Nc1ccc(C(=O)NO)cc1`: the IC50 on Histone deacetylase 8 is 0.152 µM; against Histone deacetylase 1, 0.024 µM.
With `OC1(c2ccccc2)C=C(c2ccccc2)CO1` (stereo not drawn), the IC50 on Histone deacetylase 2 came out at 0.17 µM; at Histone deacetylase 1 it was 2.74 µM.
On to `CC(C)Cc1c(OCCOc2cccc(/C=C/C(=O)NO)c2)ccc2c1OC(=O)CC2`, for which the values for the half-maximal inhibitory concentration (IC50) (in assay [2]; against Histone deacetylase 1) were 0.006 µM and 0.0667 µM, respectively.
Turning to `O=C(/C=C/c1cccc(Nc2ncnc3cc4c(cc23)OCCO4)c1)NO`, the IC50 was 0.5 µM against Histone deacetylase 3, 0.56 µM in assay [2] and 0.29 µM at Histone deacetylase 1.
Take `CCc1nnc(NS(=O)(=O)c2ccc(Nc3nc(C)c(C(=O)Nc4ccccc4)s3)cc2)s1`: the IC50 against Histone deacetylase worked out at 32 µM. This lies in the double-digit micromolar range.
Turning to `CN(CCc1ccccc1)S(=O)(=O)c1cccc(/C=C/C(=O)NO)c1`, the IC50 against Histone deacetylase 9 came out at 16.9 µM; at Histone deacetylase 3 it was 0.0034 µM; on Histone deacetylase 5 it was 10.7 µM; at Histone deacetylase 8, 0.15 µM; in assay [2], 0.005 µM; on Histone deacetylase 2, 0.0002 µM. In addition, the results for the concentration for half-maximal inhibition (IC50) against Histone deacetylase 4 and against Histone deacetylase 1 were 0.5 µM and 0.005 µM, respectively.
Compound `CC[N+]1=C(/C=C/C=C/C=C2/N(CCCCC(=O)N(CCc3c(C)[nH]c4ccccc34)Cc3ccc(/C=C/C(=O)NO)cc3)c3ccc4c(S(=O)(=O)O)cc(S(=O)(=O)O)cc4c3C2(C)C)C(C)(C)c2c1ccc1c(S(=O)(=O)[O-])cc(S(=O)(=O)O)cc21` came in with an IC50 at Histone deacetylase of 0.0096 µM.
Regarding `CN(C)Cc1ccc(C(=O)Nc2cc(-c3ccccc3)ccc2N)cc1`, the IC50 was 5.2 µM at Histone deacetylase 3, 0.02 µM at Histone deacetylase 2 and 0.01 µM at Histone deacetylase 1.
For the compound `[11CH3]n1cc(CCNCc2ccc(/C=C/C(=O)NO)cc2)c2ccccc21`, the concentration for half-maximal inhibition (IC50) on Histone deacetylase 9 amounted to 4.85 µM; at Histone deacetylase 3 it was 0.0004 µM; at Histone deacetylase 5, 0.099 µM; against Histone deacetylase 8, 1.04 µM; at Histone deacetylase 7, 2.04 µM; in [2], 0.0016 µM. In addition, the figures for the 50% inhibitory concentration (IC50) at Histone deacetylase 2, against Histone deacetylase 4 and at Histone deacetylase 1 were 0.0012 µM, 0.655 µM and 0.0002 µM, respectively.
As to `COc1cc2c(Nc3cccc(/C=C/C(=O)NO)c3)ncnc2cc1OCCCN1CCOCC1`, the IC50 against Histone deacetylase 3 came to 0.18 µM; in assay [2] it was 0.56 µM; at Histone deacetylase 1, 0.16 µM.
